Test results taken from publication PMC8422859, “A Novel Oral Arginase 1/2 Inhibitor Enhances the Antitumor Effect of PD-1 Inhibition in Murine Experimental Gliomas by Altering the Immunosuppressive Environment” (Frontiers in Oncology, 2021).

Columns and labels:
recombinant human ARG2 = biological target: T1, recombinant human ARG2 (Homo sapiens, UniProt P78540); experiment: Recombinant arginase activity assay, hARG2; type: biochemical; conditions: 1 h at 37°C, pH 7.4, 10 mM L-arginine, urea detection; read-out: Inhibition of recombinant hARG2: IC50
T1 construct: made in house; host or cells: E. coli
T1 sequence (P78540 23-354): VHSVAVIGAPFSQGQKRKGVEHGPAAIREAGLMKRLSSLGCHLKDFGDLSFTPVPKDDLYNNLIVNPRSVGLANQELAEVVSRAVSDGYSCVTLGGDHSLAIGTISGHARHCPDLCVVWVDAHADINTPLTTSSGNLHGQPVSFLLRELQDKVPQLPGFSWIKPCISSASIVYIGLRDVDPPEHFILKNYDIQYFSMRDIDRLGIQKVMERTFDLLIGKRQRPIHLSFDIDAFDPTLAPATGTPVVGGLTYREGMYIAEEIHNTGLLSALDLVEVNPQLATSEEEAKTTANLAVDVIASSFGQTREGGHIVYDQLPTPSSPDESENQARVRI
Description: The inhibitory activity towards hARG1 and hARG2 enzymes was assessed using recombinant enzymes biosynthesized using a prokaryotic expression system (E. coli) and purified by fast protein liquid chromatography (FPLC). Briefly, recombinant enzymes were incubated with the tested compounds for 1 h at 37°C in the reaction buffer (100 mM sodium phosphate buffer, 130 mM NaCl, 1 mg/mL BSA, pH 7.4) containing substrate (10 mM L-arginine hydrochloride) and cofactor (200 µM MnCl2). The assay is based on the detection of urea, which is generated during the conversion of L-arginine into L-ornithine catalyzed by arginases. To visualize the product, we adding a mixture of reagent A (4 mM oPA, 50 mM boric acid, 1 M sulfuric acid, 0.03% Brij-35) and reagent B (4 mM NED, 50 mM boric acid, 1 M sulfuric acid, 0.03% Brij-35) in equal proportions. The absorbance was measured at 515 nm. The urea production in the absence of any tested compound was considered as maximal enzyme activity. The absorbance in the absence of arginase (background) was considered as zero activity. Two reference compounds OAT-81 (ABH, no. 222638-65-5) and OAT-90 (2-amino-6-borono-2-(2-(3-(2,4-dichlorophenyl)propyloamino)ethyl) hexanoic acid, and two novel inhibitors OAT-1617 and OAT-1746 (the last three synthesized at OncoArendi Therapeutics) were tested. Normalized values were analyzed using GraphPad Prism 7.0 software and the IC50 values were determined.

BV2 microglial cells = experiment: MTT viability assay, BV2; type: cell-based, mouse; conditions: 24 h, concentrations up to 1000 µM
Description: Cell viability was assessed using MTT metabolism assay (U87 and BV2 cells) or MTS CellTiter 96® AQueous One Solution Cell Proliferation Assay (Promega) for the primary murine microglia cultures. Cells were cultured either in 96-well plates (U87 at density of 1×10^4) or 24-well plates (BV2 at density of 4×10^4 and primary microglia 8×10^4) with the indicated concentrations of the inhibitor or H2O (vehicle) for 24 h. MTT solution (Sigma Aldrich) was added to each well to a final concentration of 0.5 mg/mL. After 1 h of incubation at 37°C, water-insoluble dark blue formazan crystals were dissolved in DMSO. Optical densities (OD) were measured at 570 and 620 nm using a scanning multiwell spectrophotometer. The MTT assay was performed according to the manufacturer’s protocol. All measurements were carried out on three independent cell passages, in triplicates.

[1] = tested on: glioma-associated CD11b+ cells; experiment: RNA-seq of CD11b+ cells from tumor-bearing hemispheres; type: in vivo, mouse
Description: Immediately after sorting, CD11b^+ cells were centrifuged and lysed for further isolation of RNA using the RNeasy Plus Mini Kit (Qiagen, Germany). The integrity and quality of RNA were assessed on an Agilent 2100 Bioanalyzer with an RNA 6000 Pico Kit (Agilent Technologies, CA, USA). A total of 9 strand-specific RNA libraries were prepared for sequencing (2-3 biological replicates/treatment) using a KAPA Stranded mRNA-Seq Kit (Kapa Biosystems, MA, USA). Poly-A mRNAs were purified from 100 ng of total RNA using poly-T-oligo-magnetic beads (Kapa Biosystems, MA, USA). mRNAs were fragmented and a first-strand cDNA was synthesized using reverse transcriptase and random hexamers. […] Final libraries were analyzed using Bioanalyzer and Agilent DNA High Sensitivity chips (Agilent Technologies, Santa Clara, CA, USA) to confirm fragment sizes (~300 bp). Quantification was performed using a Quantus fluorometer and the QuantiFluor dsDNA System (Promega, Madison, Wisconsin, US). […]
Illumina-specific adapters, short reads, and low quality 5’ and 3’ bases were filtered out in the FASTQ format files using Trimmomatic ([27]) tool (version 0.36). The resulting RNA sequencing reads were aligned to a reference mouse genome sequence (mm10) with STAR aligner ([28]) (version 2.6.1b) using the two pass Mode Basic option. […]

ARG1/2 = tested on: ARG1/2; parameters: method as in PMID 31278254; conditions: cited from earlier work
human and murine T cells = tested on: human and murine T cells; parameters: method as in PMID 31278254; conditions: cited from earlier work
non-CNS tumor models = conditions: cited from earlier work

Structure (SMILES): CN(C)C[C@@H]1CC[C@@H](CCB(O)O)C[C@]1(N)C(=O)O [OAT-1746]
- IC50 (recombinant human ARG2): 49 nM
- viability of BV2 microglial cells (toxicity) (BV2 microglial cells): not toxic
- differentially expressed genes versus CTR (padj<0.05) [1]: over 1800 genes
- inhibition of ARG1/2 (ARG1/2): low nanomolar concentrations
- ARG1-inhibited proliferation of human and murine T cells (human and murine T cells): reversed
- antitumor efficacy in non-CNS tumor models (non-CNS tumor models): significant antitumor efficacy
- toxicity in experimental animals (non-CNS tumor models; multiple oral dosing, mono- or combinatorial therapies, other tumor models): no toxicity
